Assay [1] has as its target T1, Adrenergic receptor alpha-1 (Rattus norvegicus, UniProt P15823+P23944+P43140).
T1 sequence (P15823 whole entry): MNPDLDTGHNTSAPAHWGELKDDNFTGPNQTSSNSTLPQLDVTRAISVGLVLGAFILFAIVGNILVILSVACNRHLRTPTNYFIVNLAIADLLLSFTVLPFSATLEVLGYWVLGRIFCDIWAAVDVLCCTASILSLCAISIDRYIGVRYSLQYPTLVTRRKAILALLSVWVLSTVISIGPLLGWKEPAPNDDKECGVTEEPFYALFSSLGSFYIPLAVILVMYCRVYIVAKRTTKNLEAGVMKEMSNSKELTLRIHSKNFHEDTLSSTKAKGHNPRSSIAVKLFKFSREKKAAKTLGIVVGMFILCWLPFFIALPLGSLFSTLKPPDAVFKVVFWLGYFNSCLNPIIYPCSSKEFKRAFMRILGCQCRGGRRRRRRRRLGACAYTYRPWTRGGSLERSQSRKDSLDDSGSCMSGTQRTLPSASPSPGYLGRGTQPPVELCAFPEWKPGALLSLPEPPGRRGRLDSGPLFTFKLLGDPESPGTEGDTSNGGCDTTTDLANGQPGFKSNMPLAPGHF
T1 sequence (P23944 whole entry): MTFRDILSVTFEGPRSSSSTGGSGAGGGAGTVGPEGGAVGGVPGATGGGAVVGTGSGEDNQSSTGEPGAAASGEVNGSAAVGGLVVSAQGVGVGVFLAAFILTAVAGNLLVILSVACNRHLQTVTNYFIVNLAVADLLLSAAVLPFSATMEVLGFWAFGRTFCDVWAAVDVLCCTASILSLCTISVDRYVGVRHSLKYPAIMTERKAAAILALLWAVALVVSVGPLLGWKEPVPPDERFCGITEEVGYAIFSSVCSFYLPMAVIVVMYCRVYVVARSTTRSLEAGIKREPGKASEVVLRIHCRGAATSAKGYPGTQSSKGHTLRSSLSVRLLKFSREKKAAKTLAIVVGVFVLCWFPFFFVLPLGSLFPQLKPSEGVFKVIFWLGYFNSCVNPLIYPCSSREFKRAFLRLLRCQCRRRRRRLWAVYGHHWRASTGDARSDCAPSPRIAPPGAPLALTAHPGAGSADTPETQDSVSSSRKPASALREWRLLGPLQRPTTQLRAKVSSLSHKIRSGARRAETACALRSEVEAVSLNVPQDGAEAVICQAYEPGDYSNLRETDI
T1 sequence (P43140 whole entry): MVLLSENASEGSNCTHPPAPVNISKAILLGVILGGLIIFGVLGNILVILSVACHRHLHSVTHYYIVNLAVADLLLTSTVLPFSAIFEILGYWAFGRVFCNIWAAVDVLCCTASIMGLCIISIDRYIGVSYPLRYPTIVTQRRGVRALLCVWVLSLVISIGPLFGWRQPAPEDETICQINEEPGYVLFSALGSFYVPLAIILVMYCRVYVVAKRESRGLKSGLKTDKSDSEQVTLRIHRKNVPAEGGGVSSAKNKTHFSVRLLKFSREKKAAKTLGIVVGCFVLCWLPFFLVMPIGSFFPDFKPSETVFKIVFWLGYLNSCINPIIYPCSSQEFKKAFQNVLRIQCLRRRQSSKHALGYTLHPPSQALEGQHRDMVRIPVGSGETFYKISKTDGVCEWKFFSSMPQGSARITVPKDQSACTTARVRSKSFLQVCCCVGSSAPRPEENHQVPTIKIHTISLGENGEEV
The experiment in a line: Binding affinity towards Alpha-1 adrenergic receptor. Format: protein assay.

Assay [2] concerns the target T2, 5-hydroxytryptamine receptor 1A (Rattus norvegicus, UniProt P19327).
T2 sequence (P19327 whole entry): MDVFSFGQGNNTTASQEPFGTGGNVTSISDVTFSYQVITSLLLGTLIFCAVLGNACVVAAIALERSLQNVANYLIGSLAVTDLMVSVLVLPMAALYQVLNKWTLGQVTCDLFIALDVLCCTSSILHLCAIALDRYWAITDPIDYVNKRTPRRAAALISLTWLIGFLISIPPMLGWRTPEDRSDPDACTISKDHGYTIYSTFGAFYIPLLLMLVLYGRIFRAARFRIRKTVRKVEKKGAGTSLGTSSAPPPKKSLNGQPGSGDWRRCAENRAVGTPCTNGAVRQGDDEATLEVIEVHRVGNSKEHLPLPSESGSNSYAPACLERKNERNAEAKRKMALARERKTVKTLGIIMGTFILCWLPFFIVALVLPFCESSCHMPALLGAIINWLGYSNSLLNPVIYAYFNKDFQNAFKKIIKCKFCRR
The assay can be described thus: Binding affinity towards 5-hydroxytryptamine 1A receptor using receptor binding assay.

Assay [3] addresses T3, Adrenergic receptor alpha-2 (Rattus norvegicus, UniProt P22086+P19328+P22909).
T3 sequence (P22086 whole entry): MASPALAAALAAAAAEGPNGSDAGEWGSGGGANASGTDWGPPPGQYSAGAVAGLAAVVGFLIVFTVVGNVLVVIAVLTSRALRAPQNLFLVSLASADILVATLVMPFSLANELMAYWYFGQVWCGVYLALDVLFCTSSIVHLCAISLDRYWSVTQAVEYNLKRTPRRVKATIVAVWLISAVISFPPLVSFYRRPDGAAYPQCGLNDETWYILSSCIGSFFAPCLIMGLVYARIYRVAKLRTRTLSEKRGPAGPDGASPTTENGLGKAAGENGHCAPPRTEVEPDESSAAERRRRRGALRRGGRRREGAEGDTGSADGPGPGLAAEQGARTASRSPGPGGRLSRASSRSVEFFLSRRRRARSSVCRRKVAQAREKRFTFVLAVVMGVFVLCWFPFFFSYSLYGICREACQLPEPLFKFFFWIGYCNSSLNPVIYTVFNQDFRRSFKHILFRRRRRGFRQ
T3 sequence (P19328 whole entry): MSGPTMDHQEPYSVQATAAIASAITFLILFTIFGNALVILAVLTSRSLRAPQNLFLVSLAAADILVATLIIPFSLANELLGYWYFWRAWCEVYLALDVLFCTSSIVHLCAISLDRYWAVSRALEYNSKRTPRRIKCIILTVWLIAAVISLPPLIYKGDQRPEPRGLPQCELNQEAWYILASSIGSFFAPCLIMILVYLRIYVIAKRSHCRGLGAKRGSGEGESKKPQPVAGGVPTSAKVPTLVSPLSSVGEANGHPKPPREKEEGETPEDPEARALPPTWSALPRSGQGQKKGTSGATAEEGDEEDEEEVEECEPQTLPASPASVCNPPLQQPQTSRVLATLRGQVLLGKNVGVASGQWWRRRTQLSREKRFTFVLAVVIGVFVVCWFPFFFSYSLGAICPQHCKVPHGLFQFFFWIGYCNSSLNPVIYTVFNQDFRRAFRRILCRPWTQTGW
T3 sequence (P22909 whole entry): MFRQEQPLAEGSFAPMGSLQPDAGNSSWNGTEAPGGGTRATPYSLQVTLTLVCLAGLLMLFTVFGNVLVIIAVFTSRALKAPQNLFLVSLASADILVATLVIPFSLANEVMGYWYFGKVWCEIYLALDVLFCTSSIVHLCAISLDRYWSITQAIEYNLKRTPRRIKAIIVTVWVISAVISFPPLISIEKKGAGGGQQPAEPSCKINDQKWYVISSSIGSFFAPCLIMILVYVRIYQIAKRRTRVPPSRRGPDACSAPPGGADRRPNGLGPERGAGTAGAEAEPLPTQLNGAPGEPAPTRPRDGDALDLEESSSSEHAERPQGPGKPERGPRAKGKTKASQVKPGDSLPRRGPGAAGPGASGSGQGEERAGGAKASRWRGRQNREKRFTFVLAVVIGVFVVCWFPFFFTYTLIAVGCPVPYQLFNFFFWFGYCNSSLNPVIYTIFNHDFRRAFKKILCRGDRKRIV
The assay can be described thus: Binding affinity towards Alpha-2 adrenergic receptor. Format: protein assay.

The values that follow come from ChEMBL document CHEMBL1159144, “Novel pyridazino[4,5-b][1,5]oxazepines and -thiazepines as 5-HT1A receptor ligands” (Bioorg Med Chem Lett, 1997).

Where only a bound is given, the exact number is not on record here.

For orientation: IC50 means the midpoint of a concentration-inhibition curve.

Regarding `COc1ccccc1OCCN(C)CCC(=O)N1CCCOc2c1cnn(C)c2=O`, the concentration for half-maximal inhibition (IC50) was 16100 nM in assay [1], 134 nM in assay [2] and 9500 nM in assay [3]. For the compound `COc1ccccc1OCCNCCC(=O)N1CCCSc2c1cnn(C)c2=O`, the figures for the half-inhibitory concentration (IC50) in assay [1], in assay [2] and in assay [3] were 1700 nM, 11.4 nM and 270 nM, respectively.

Regarding `COc1ccccc1OCCN(CCC(=O)N1CCCOc2c1cnn(C)c2=O)Cc1ccccc1`, the IC50 in assay [2] amounted to 1000 nM. `CCSc1c(N(C)C(=O)CCNCCOc2ccccc2OC)cnn(C)c1=O`: in assay [2], the IC50 was found to be 32.7 nM. On to `COc1ccccc1OCCNCCCC(=O)N1CCCSc2c1cnn(C)c2=O`, for which the IC50 in assay [1] was 930 nM; in assay [2] it was 9.2 nM; in assay [3], 860 nM. `Cn1ncc2c(c1=O)SCCCN2C(=O)CCNCCOc1cccc(Cl)c1`: in assay [2], the IC50 came out at 181 nM. On the same count and under the same terms, the figure for `Cn1ncc2c(c1=O)SCCCN2C(=O)CCNCCOc1ccccc1` is 150 nM. For the compound `COc1ccccc1OCC(O)CN1CCN(CCC(=O)N2CCCOc3c2cnn(C)c3=O)CC1` (stereo unspecified), the IC50 is greater than 10000 nM in assay [1], greater than 1000 nM in assay [2] and 47000 nM in assay [3]. Taken in the same sequence, the figures for `COc1ccccc1OCCNCCCC(=O)N1CCCOc2c1cnn(C)c2=O` were 690 nM, 17.8 nM and 3900 nM. As to `Cn1ncc2c(c1=O)OCCCN2C(=O)CNCCOc1ccccc1`, in assay [2], the IC50 came to 230 nM.

`Cn1ncc2c(c1=O)OCCCN2C(=O)CCNCCOc1cccc(Cl)c1`: the IC50 in assay [2] stood at 312 nM. On to `COc1ccccc1OCCNCC(=O)N1CCCSc2c1cnn(C)c2=O`, for which the IC50 in assay [1] was greater than 10000 nM; in assay [2], 37 nM; in assay [3], 3100 nM. For `COc1cccc(OCC(O)CN2CCN(CCC(=O)N3CCCSc4c3cnn(C)c4=O)CC2)c1` (stereo unspecified), the IC50 in assay [2] turned out to be 118 nM. The compound `COc1ccccc1OCCNC(C)C(=O)N1CCCOc2c1cnn(C)c2=O` (stereo unspecified) gave a 50% inhibitory concentration (IC50) in assay [2] greater than 1000 nM. For `COc1ccccc1OCCNCCC(=O)N1CCCOc2c1cnn(C)c2=O`, the results for the IC50 in assay [1], in assay [2] and in assay [3] were 1700 nM, 19.5 nM and 1800 nM, respectively. Regarding `Cn1ncc2c(c1=O)SCCCN2C(=O)CNCC1COc2ccccc2O1` (stereo unspecified), the IC50 amounted to 19000 nM in assay [1], 44.9 nM in assay [2] and 2330 nM in assay [3]. On to `COc1ccccc1OCC(O)CN1CCN(CC(=O)N2CCCOc3c2cnn(C)c3=O)CC1` (stereo unspecified), for which, in assay [2], the IC50 is greater than 1000 nM.

In assay [2], `COc1ccccc1OCCN(C)CCCN1CCCSc2c1cnn(C)c2=O` gave an IC50 greater than 1000 nM. `COc1ccccc1OCCNC(C)C(=O)N1CCCSc2c1cnn(C)c2=O` (stereo unspecified) had an IC50 in assay [2] greater than 1000 nM. As for `Cn1ncc2c(c1=O)OCCCN2C(=O)CNCC1COc2ccccc2O1` (stereo unspecified), the values for the IC50 in assay [1], in assay [2] and in assay [3] were greater than 10000 nM, 299 nM and 4600 nM, respectively. For `COc1ccccc1OCCN(CCC(=O)N1CCCSc2c1cnn(C)c2=O)Cc1ccccc1`, in assay [2], the 50% inhibitory concentration (IC50) was greater than 1000 nM. `COc1ccccc1OCCNCC(=O)N1CCCOc2c1cnn(C)c2=O`: the values for the IC50 in assay [1], in assay [2] and in assay [3] were 12500 nM, 163 nM and 21000 nM, respectively. `COc1ccccc1N1CCN(CC(=O)N2CCCOc3c2cnn(C)c3=O)CC1` returned an IC50 in assay [2] greater than 1000 nM. For `Cn1ncc2c(c1=O)OCCCN2C(=O)CCNCCOc1ccccc1`, the IC50 in assay [1] amounted to 8900 nM; in assay [2], 524 nM; in assay [3] it was 540 nM.
